Experimental data published in patent US20220305023A1, “Chlorophyllin Containing Pharmaceutical Composition For Prevention Of Pathogenesis Of Coronavirus Disease” (priority 2021, published 2022).

Assays:
[1] = tested on: Vero CCL-81 cells; conditions: 5 μM
[2] = tested on: white blood cells; assay: Phase I study: white blood cell (WBC) count in blood; type: in vivo, human; conditions: 8-16 hr after first dose of 750 mg
Procedure: (§1) An open label Phase I clinical study was conducted to assess pharmacodynamics of sodium copper Chlorophyllin in healthy adult, human male subjects under fasting conditions. The study was approved by Drug Controller General of India (DCGI). The trial is registered with the Clinical Trial Registry of India (CTRI/2018/09/015576). Five healthy male subjects were allowed to fast overnight and one Chlorophyllin tablet (750 mg) was administered to each subject by oral route along with ˜200 ml water. The subjects were given breakfast, lunch and snacks and a second tablet of Chlorophyllin (750 mg) was administered to each subject by oral route along with 200 ml water after 12 hr.
(§2) Chlorophyllin tablets comprising Chlorophyllin or salts thereof (750 mg), were administered to healthy human subjects after overnight fasting. Blood samples were collected through an indwelling intravenous cannula (Venflon) placed in the fore arm vein of the subjects at different time intervals. Absolute neutrophil count (ANC) and white blood cell (WBC) counts were measured. Serum was separated and chemokine concentration in the serum was measured using cytometric bead array.

[3] = Acute oral toxicity (oral gavage); type: in vivo, mice and rats
Procedure: (§3) Different doses of Chlorophyllin (100 to 5000 mg/kg body weight) were given to mice and rats (6 males, 6 females) by oral gavage in an accredited facility for animal toxicity testing.

[4] = tested on: neutrophils; assay: Phase I study: absolute neutrophil count (ANC) in blood; type: in vivo, human
Procedure: as §1, §2

[5] = Phase I study: tolerability in healthy human subjects; type: in vivo; conditions: 750 mg given twice a day, five subjects
Procedure: as §1

[6] = tested on: lymphocytes; assay: Phase I study: absolute lymphocyte count in blood; type: in vivo, human; conditions: 750 mg tablets, healthy subjects
Procedure: as §1, §2

[7] = 28 day repeat dose toxicity; type: in vivo, rats; conditions: 1000 mg/kg body weight daily for 28 consecutive days
Procedure: as §3

[8] = tested on: CD34+ hematopoietic stem and progenitor cells; assay: Phase I study: CD34+ hematopoietic stem and progenitor cells in blood by flow cytometry; type: in vivo, human; conditions: 750 mg tablets, five subjects
Procedure: as §1
Blood sample at each time point was also collected in K2EDTA vacutainer tube and erythrocytes were lysed using RBC lysis buffer. Then cells were stained with fixable far red live dead reagent and PE-CD34 and FITC-CD45 antibodies at 4° C. and fixed with 4% formaldehyde. The frequency of CD34+ hematopoietic stem and progenitor cells in the blood was determined by flow cytometry and FlowJo software.

[9] = tested on: SARS-CoV-2 virus; type: cell-based

Sodium copper Chlorophyllin
cytotoxicity in the target cells [1]: without causing cytotoxicity | increase in WBC count relative to pre-dose value [2]: 12.8-26.5% | signs of toxicity ([3]; rodents, indicated doses (acute up to 5000 mg/kg; 1000 mg/kg for 28 days)): no signs of toxicity | LD50 ([3]; rodents, oral, proposed from absence of toxicity): higher than 5000 mg/kg body weight | tolerability of acute oral dose ([3]; up to 5000 mg/kg body weight, oral gavage, mice and rats): well tolerated | time to ANC increase after first dose ([4]; 750 mg, 4 hr before second dose): ≤ 8 h | increase in ANC relative to pre-dose value ([4]; 8-16 hr after first dose of 750 mg, fasting, five subjects): 12.4-32.5% | tolerability in human subjects [5]: well tolerated | increase in lymphocyte counts in human blood as compared to pre-dose value [6]: up to 30% | tolerability of repeat dose [7]: well tolerated | relative decrease in percentage of CD34+ HPSCs in human blood as compared to pre-dose value [8]: 50-85% | effect on SARS-CoV-2 virus multiplication ([9]; 0.1 micro molar): did not inhibit | inhibition of SARS-CoV-2 multiplication ([9]; 5 micro-molar, 72 hr, Vero CCL-81 cells): ~87% | concentration required for ~90% inhibition of multiplication of SARS-CoV-2 virus ([9]; Vero CCL-81 cells, 72 hr): about 5 micro molar | EC50 ([9]; Vero CCL-81 cells, 72 hr, read-out: concentration required to inhibit SARS-CoV-2 multiplication by 50% (EC50)): < 1 µM | effect on multiplication of SARS-CoV-2 virus ([9]; less than 1 micro-molar): did not significantly decrease
